Assay type in all cases: binding
Test [1] deals with T1, JAK1 (Homo sapiens, UniProt P23458).
T1 construct: endogenous in cells; host or cells: Molt4 (ATCC CRL-1582) and Ramos (ATCC CRL-1596), mixed lysate 1:2
In words: Kinobeads assay, JAK1. Particulars: mixed Molt4/Ramos lysate, read-out: Inhibition values (IC50) JAK1. The procedure, abridged:
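Competitive pulldown in combined Molt4 and Ramos lysates (1 vs 2 volumes): compound, as a nine-point 1:3 series, and kinobeads were shaken together for 3 hours in a cold room. Captured JAK1 was quantified on an infrared-read antibody dot blot and IC50 calculated. Controls held 2% DMSO without compound.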

Test [2] deals with T2, JAK2 (Homo sapiens, UniProt O60674).
T2 construct: endogenous in cells; host or cells: Molt4 (ATCC CRL-1582) and Ramos (ATCC CRL-1596), mixed lysate 1:2
In words: Kinobeads assay, JAK2. Particulars: mixed Molt4/Ramos lysate, read-out: Inhibition values (IC50) JAK2. The procedure, abridged:
(§1)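 IC50s come from capture competition: compound at various concentrations versus an immobilized aminopyrido-pyrimidine ligand for kinases in 1:2 Molt4/Ramos lysate (10 mg/mL), 3 h in a cold room. Captured JAK-family kinases were measured by specific-antibody dot blot with Odyssey infrared detection.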

Test [3] has as its target T3, TYK2 (Homo sapiens, UniProt P29597).
T3 construct: endogenous in cells; host or cells: Molt4 (ATCC CRL-1582) and Ramos (ATCC CRL-1596), mixed lysate 1:2
Description: Kinobeads assay, TYK2. Particulars: mixed Molt4/Ramos lysate, read-out: Inhibition values (IC50) TYK2. The procedure, abridged: as §1

We go through three compounds from patent US20140179664A1, “Heterocyclyl Pyrimidine Analogues As JAK Inhibitors” (Cellzome Limited, priority 2011, published 2014).

T1 sequence (P23458 whole entry): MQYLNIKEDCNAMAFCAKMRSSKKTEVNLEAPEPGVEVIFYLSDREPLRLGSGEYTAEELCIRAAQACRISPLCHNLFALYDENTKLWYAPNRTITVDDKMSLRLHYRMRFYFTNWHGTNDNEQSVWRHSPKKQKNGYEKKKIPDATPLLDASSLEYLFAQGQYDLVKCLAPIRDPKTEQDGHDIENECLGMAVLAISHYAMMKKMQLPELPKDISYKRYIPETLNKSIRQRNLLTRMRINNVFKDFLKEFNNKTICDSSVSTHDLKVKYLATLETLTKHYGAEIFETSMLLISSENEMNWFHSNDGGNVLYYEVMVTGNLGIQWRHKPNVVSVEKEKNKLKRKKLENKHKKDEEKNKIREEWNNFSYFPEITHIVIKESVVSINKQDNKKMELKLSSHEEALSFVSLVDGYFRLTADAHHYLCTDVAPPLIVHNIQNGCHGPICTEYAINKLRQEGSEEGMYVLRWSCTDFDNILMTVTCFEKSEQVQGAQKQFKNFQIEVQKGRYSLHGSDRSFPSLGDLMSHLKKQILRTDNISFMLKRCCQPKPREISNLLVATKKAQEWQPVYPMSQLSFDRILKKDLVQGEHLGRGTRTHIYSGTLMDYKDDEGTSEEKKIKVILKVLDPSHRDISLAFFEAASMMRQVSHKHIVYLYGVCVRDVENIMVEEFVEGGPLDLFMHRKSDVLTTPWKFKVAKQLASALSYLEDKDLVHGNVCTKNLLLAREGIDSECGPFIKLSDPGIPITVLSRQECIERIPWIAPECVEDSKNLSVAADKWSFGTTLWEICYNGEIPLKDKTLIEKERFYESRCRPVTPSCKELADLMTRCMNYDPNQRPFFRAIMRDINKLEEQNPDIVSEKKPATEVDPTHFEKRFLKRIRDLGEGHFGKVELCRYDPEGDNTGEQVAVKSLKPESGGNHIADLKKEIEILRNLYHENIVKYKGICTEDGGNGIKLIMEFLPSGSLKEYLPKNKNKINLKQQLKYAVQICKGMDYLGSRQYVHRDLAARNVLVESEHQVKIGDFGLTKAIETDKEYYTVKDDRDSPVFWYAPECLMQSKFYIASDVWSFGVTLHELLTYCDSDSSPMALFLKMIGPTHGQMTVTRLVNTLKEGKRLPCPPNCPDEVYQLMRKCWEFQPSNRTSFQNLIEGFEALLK
T3 sequence (P29597 whole entry): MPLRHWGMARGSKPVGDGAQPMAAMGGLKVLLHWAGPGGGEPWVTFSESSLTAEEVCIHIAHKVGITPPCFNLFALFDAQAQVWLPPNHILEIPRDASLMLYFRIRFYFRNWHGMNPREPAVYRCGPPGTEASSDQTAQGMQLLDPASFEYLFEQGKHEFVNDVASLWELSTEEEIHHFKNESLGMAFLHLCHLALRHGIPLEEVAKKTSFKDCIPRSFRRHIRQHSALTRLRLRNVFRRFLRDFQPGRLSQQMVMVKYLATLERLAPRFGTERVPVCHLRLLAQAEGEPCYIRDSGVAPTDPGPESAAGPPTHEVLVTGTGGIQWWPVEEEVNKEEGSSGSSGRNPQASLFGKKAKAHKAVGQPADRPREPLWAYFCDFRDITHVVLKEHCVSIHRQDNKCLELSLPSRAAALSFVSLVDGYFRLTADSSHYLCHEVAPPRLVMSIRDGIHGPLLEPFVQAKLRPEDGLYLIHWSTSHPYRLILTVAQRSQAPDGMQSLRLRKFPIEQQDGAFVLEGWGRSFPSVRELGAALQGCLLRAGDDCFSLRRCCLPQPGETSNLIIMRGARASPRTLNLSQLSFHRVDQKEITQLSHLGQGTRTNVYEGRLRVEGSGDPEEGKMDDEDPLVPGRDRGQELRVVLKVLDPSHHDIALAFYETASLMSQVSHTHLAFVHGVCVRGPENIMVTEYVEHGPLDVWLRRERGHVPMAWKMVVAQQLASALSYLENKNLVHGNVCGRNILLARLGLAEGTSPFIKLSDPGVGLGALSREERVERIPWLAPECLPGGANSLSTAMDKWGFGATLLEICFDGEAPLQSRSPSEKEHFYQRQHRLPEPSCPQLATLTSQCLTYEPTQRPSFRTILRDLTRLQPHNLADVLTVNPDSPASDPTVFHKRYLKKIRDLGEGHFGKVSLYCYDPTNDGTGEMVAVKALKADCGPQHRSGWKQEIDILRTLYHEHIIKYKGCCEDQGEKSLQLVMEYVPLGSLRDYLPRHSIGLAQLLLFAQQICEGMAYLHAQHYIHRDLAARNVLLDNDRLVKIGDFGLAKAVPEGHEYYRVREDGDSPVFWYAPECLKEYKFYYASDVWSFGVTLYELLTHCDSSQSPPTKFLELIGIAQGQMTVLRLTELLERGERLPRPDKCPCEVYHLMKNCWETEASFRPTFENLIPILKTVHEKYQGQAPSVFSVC
T2 sequence (O60674 whole entry): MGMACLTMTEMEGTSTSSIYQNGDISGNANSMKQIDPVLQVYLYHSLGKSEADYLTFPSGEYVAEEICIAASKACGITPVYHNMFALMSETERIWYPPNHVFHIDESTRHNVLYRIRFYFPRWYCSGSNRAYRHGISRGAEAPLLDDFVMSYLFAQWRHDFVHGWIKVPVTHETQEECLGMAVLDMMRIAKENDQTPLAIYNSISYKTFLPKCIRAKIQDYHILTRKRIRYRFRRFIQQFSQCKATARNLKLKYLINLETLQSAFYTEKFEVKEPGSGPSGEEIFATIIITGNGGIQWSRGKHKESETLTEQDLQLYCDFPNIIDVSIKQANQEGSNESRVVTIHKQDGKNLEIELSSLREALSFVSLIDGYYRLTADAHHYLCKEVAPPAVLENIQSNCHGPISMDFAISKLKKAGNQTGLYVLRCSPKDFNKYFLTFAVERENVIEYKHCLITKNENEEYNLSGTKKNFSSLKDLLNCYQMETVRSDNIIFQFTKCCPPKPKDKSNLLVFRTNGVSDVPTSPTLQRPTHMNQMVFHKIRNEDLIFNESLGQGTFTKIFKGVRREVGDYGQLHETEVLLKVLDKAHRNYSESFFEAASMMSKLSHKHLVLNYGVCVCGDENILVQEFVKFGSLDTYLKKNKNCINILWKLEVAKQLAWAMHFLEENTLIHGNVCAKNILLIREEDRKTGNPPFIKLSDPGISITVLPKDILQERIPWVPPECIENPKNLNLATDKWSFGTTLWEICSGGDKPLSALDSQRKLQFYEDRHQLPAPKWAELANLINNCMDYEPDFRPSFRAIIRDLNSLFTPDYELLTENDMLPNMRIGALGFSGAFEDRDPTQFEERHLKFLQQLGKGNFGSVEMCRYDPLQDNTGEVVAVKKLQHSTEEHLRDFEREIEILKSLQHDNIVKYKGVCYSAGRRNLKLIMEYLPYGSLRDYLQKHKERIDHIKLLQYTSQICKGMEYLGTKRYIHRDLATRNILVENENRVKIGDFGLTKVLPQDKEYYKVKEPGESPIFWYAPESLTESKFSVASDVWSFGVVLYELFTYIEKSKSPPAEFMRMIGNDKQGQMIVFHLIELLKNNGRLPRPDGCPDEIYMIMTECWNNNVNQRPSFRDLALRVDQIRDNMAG

What is called IC50 is the concentration that inhibits the measured activity by half. With `Cc1cnc(Nc2cnn(C)c2)nc1N[C@H](CO)c1cc(F)cc(F)c1` [Compound 164], the IC50 is 100 to 1000 nM in test [1], 1000 to 10000 nM in test [2] and 1000 to 10000 nM in test [3].

For the compound `OC[C@@H](Nc1nc(Nc2cnn(CC(F)F)c2)ncc1Cl)c1ccccc1F` [Compound 165], the half-inhibitory concentration (IC50) in test [1] is 100 to 1000 nM; in test [2], 1000 to 10000 nM; in test [3], 1000 to 10000 nM.

With `Cc1cnc(Nc2cnn(CC(F)F)c2)nc1N[C@H](CO)c1cc(F)ccc1F` [Compound 166], the IC50 in test [1] lay within 100 to 1000 nM; in test [2] it was 1000 to 10000 nM; in test [3] it was 1000 to 10000 nM.
